# Like-named read-outs stand apart in the source and are kept apart here.
# Experiments:
# Experiment in all cases: Kinase selectivity, scanMAX Kinase assay panel (DiscoverX), % control at 1 uM
# Assay type in all cases: binding
# [1] = target: T1, scanMAX Kinase assay panel (Homo sapiens, UniProt P00533, G719C); details: EGFR (G719C); 1 uM; read-out: Percent Control (%)
# T1 construct: purchased DiscoverX
# Method in brief: (§1)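 1 uM cpd (DMSO) per kinase; % ctrl = [cpd − pos ctrl]/[neg ctrl − pos ctrl] × 100; hit if <35.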
# [2] = target: T2, scanMAX Kinase assay panel (Homo sapiens, UniProt Q9BWU1); details: CDK11; 1 uM; read-out: Percent Control (%)
# T2 construct: purchased DiscoverX
# T2 sequence (Q9BWU1 whole entry): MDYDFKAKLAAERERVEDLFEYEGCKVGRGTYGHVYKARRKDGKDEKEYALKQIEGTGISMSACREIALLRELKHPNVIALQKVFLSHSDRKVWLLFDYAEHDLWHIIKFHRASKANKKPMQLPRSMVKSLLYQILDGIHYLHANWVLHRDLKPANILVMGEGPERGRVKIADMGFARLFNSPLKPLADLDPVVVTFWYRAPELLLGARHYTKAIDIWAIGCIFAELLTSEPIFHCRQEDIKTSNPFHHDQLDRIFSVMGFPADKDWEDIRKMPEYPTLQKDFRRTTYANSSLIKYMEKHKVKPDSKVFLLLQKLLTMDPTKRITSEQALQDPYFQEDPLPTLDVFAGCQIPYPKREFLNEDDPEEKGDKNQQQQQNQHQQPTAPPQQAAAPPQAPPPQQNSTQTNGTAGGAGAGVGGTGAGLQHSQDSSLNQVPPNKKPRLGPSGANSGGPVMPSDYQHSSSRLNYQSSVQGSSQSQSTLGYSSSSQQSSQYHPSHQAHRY
# Method in brief: as §1
# [3] = target: T3, scanMAX Kinase assay panel (Homo sapiens, UniProt P57058); details: HUNK; 1 uM; read-out: Percent Control (%)
# T3 construct: purchased DiscoverX
# T3 sequence (P57058 1-714): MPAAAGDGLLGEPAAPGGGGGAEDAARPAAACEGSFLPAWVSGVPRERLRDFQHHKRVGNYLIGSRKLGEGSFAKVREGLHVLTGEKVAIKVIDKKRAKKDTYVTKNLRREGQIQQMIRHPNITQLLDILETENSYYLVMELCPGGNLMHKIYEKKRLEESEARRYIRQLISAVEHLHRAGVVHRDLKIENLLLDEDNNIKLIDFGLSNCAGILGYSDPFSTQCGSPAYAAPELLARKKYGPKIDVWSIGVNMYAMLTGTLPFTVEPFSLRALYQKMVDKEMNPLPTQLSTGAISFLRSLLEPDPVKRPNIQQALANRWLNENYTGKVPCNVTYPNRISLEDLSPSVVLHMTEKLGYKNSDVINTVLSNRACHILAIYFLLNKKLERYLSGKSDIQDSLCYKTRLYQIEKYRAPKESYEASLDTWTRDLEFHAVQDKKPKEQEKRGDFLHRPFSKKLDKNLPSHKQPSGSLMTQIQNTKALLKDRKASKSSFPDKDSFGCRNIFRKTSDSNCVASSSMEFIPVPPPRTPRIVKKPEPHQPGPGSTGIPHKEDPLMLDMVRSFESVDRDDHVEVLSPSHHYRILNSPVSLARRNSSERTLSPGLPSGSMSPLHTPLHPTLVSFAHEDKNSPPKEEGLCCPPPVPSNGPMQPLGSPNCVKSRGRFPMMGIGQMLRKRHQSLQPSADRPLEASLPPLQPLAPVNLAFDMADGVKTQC
# Method in brief: as §1
# [4] = target: T4, scanMAX Kinase assay panel (Homo sapiens, UniProt Q9NRM7); details: LATS2; 1 uM; read-out: Percent Control (%)
# T4 construct: purchased DiscoverX
# T4 sequence (Q9NRM7 1-1088): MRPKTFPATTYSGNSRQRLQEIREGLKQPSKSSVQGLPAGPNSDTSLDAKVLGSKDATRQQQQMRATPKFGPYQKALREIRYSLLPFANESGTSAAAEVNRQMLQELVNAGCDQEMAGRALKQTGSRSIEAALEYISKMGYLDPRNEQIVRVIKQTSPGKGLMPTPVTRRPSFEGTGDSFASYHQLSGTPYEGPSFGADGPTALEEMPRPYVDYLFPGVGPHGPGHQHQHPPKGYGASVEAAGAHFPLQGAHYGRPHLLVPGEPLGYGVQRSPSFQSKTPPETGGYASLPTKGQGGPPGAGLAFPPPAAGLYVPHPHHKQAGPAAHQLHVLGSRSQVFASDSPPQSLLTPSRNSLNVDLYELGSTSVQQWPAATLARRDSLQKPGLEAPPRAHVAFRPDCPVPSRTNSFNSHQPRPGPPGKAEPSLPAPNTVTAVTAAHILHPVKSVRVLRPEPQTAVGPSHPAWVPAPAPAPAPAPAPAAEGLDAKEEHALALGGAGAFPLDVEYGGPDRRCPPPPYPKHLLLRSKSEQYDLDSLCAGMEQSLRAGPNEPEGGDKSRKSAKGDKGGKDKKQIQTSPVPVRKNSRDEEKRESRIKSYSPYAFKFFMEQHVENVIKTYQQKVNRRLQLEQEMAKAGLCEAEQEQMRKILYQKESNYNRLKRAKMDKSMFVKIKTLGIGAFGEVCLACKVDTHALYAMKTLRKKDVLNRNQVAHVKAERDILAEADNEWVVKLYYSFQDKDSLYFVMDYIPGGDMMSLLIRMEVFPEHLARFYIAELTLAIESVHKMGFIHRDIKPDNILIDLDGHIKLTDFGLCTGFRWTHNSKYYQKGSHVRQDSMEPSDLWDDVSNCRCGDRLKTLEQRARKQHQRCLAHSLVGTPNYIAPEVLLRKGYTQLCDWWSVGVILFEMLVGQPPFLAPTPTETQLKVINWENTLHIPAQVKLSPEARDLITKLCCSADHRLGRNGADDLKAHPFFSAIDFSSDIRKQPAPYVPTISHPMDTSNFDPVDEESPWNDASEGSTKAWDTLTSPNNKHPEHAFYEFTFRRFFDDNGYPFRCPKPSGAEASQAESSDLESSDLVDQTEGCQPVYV
# Method in brief: as §1
# [5] = target: T5, scanMAX Kinase assay panel (Homo sapiens, UniProt Q13557); details: CAMK2D; 1 uM; read-out: Percent Control (%)
# T5 construct: purchased DiscoverX
# T5 sequence (Q13557 whole entry): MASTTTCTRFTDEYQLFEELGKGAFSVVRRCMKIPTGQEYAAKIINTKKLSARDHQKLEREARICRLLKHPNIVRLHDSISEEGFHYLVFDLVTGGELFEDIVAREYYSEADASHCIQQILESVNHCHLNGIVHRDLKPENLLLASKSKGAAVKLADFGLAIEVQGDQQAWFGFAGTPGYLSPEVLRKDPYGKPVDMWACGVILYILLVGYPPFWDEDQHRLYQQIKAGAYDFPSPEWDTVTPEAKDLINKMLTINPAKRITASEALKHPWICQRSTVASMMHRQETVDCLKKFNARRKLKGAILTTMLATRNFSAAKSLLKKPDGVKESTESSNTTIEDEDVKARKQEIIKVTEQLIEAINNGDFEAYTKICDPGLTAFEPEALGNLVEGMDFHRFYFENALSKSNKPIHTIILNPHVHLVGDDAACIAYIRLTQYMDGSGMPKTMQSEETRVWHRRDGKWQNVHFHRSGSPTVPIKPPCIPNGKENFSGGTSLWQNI
# Method in brief: as §1
# [6] = target: T6, scanMAX Kinase assay panel (Homo sapiens, UniProt Q9HCP0); details: CSNK1G1; 1 uM; read-out: Percent Control (%)
# T6 construct: purchased DiscoverX
# T6 sequence (Q9HCP0 whole entry): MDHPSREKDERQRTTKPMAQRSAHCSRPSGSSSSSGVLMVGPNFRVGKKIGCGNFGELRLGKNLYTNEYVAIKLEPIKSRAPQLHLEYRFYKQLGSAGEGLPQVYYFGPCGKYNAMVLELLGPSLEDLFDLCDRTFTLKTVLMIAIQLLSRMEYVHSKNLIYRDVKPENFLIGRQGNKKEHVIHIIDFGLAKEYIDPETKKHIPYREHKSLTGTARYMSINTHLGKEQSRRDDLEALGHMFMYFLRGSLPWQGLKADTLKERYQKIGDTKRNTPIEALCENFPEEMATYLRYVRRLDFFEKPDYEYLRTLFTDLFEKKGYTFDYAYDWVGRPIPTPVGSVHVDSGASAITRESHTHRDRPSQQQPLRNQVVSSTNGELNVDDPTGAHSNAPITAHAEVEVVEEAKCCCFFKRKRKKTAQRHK
# Method in brief: as §1
# [7] = target: T7, scanMAX Kinase assay panel (Homo sapiens, UniProt Q13177); details: PAK2; 1 uM; read-out: Percent Control (%)
# T7 construct: purchased DiscoverX
# T7 sequence (Q13177 whole entry): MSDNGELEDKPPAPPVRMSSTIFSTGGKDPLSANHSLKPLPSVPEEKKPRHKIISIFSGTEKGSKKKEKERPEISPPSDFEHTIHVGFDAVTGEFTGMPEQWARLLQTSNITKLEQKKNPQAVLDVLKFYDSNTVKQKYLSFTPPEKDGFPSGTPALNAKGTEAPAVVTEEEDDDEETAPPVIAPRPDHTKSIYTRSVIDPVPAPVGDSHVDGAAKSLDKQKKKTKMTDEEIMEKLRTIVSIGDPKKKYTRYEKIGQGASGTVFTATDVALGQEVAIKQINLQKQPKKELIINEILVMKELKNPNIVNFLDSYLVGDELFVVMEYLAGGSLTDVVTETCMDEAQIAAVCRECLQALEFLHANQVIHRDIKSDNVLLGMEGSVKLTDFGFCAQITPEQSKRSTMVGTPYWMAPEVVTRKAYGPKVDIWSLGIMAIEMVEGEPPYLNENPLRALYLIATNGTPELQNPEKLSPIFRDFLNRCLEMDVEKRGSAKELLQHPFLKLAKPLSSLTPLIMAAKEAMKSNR
# Method in brief: as §1
# [8] = target: T8, scanMAX Kinase assay panel (Homo sapiens, UniProt Q15418); details: 1 uM, read-out: Percent Control (%)
# T8 construct: purchased DiscoverX
# T8 sequence (Q15418 whole entry): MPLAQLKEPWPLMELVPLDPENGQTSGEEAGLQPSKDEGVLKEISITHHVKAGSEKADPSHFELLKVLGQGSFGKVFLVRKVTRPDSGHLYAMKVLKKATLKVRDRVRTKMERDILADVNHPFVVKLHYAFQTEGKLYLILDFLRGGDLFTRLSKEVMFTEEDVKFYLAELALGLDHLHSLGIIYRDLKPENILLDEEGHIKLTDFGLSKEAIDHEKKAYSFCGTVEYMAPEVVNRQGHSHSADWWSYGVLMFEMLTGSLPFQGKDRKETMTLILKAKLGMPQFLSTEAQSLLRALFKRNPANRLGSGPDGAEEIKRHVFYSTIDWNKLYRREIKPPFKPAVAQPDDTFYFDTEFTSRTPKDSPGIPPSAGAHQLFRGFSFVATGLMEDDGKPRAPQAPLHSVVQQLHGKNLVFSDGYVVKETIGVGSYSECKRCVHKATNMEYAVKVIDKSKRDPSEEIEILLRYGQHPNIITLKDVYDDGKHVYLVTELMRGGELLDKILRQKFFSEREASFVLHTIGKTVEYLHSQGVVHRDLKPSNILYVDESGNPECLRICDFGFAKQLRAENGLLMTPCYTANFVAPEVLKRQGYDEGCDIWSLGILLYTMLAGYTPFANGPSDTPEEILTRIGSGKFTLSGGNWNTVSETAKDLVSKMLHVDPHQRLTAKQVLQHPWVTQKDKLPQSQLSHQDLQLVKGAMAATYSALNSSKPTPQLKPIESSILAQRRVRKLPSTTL
# Method in brief: as §1
# T1 sequence (P00533 25-1210 G719C): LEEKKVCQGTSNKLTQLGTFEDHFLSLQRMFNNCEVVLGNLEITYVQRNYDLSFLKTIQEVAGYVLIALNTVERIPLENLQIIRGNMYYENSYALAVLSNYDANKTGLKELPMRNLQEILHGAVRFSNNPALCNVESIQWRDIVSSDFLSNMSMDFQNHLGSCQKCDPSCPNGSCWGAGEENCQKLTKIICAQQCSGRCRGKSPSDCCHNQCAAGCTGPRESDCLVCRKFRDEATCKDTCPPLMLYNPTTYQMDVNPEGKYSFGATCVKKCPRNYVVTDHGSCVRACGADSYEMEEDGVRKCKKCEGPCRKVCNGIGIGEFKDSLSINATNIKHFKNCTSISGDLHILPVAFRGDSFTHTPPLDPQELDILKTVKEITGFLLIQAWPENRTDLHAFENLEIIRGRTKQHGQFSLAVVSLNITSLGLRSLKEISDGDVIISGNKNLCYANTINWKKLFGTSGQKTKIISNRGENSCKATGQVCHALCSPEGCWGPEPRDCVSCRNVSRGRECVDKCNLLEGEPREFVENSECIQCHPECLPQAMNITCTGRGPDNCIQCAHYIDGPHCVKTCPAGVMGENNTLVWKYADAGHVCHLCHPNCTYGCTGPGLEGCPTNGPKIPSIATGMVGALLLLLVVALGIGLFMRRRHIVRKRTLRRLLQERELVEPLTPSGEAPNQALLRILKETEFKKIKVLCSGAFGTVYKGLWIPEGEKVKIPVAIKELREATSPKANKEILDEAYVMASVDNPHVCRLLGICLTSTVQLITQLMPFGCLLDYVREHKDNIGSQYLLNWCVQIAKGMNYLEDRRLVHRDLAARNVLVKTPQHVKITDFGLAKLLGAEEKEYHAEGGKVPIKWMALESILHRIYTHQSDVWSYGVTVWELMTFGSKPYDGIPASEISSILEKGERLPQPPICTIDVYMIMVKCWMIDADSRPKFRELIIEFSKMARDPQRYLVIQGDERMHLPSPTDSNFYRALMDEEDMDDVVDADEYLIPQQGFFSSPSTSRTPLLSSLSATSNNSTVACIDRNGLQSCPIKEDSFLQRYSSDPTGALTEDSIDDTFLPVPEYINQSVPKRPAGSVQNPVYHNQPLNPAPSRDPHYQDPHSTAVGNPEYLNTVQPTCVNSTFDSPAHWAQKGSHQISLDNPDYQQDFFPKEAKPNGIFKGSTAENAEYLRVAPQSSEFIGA
SMILES,remaining binding at 1 µM [1],remaining binding at 1 µM [2],remaining binding at 1 µM [3],remaining binding at 1 µM [4],remaining binding at 1 µM [5],remaining binding at 1 µM [6],remaining binding at 1 µM [7],remaining binding at 1 µM ([8]; RSK1 (Kin.Dom.1-N-terminal)),remaining binding at 1 µM ([8]; RSK1 (Kin.Dom.2-C-terminal))
Cc1ccc(NC(=O)C2(C(=O)Nc3ccc(F)cc3)CC2)cc1C#Cc1cnc2c(Nc3cnn(C(C)C)c3)cccn12 [Example 78],97%,100%,93%,100%,100%,100%,100%,100%,95%
"Cc1cn(-c2cc(NC(=O)c3ccc(C)c(C#Cc4cnc5c(Nc6cnn(C)c6)cccn45)c3)cc(C(F)(F)F)c2)cn1 [Example 12, 4-methyl-N-(3-(4-methyl-1H-imidazol-1-yl)-5-(trifluoromethyl)phenyl)-3-((8-((1-methyl-1H-pyrazol-4-yl)amino)imidazo[1,2-a]pyridin-3-yl)ethynyl)benzamide]",21%,19%,79%,98%,78%,95%,54%,79%,69%
"Cc1ccc(C(=O)Nc2ccc(CN3CCN(C)CC3)c(C(F)(F)F)c2)cc1C#Cc1cnc2c(Nc3cnn(C)c3)cccn12 [Example 1, 4-methyl-3-((8-((1-methyl-1H-pyrazol-4-yl)amino)imidazo[1,2-a]pyridin-3-yl)ethynyl)-N-(4-((4-methylpiperazin-1-yl)methyl)-3-(trifluoromethyl)phenyl)benzamide]",1%,0%,74%,67%,82%,73%,64%,60%,64%
